Experiments:
[1] = system: HCV GT1a replicon cells; experiment: HCV Replicon assay, GT1a replicon cells (Luciferase / NEO qPCR); type: cell-based; conditions: Hepatitis C virus, 72 hours incubation, read-out: EC50 against HCV 1a genotype
Procedure: (§1) An HCV Replicon assay was utilized in the present invention, and was prepared, developed and validated as described in Science, 1999, 285 (5424), 110-3 and J. Virol., 2003, 77 (5), 3007-19.
(§2) HCV GT1a, GT1b and GT2a replicon cells were used to test the currently described compound series as well as wild-type cells HCV 1b and resistant cells Y93H, L31F, P32L and 1302V. […]
(§3) The GT1a cells and GT1b cells were seeded into 96-well plates (8,000 cells in 125 μL/well) respectively; each compound was diluted to desired concentration using 5-fold serial dilutions protocol, 10 doses in duplicate, and added to wells with POD™ 810 Plate Assembler. The final concentration of DMSO was 0.5%; the plates were incubated in a CO2 incubator for 72 hours; after that, 40 μL of Luciferase assay substrate (Promega Bright-Glo) was added to each well, and detected by a chemiluminescence detection system (Topcount Microplate Scintillation and Luminescence Counter) 5 minutes later; data analysis.
(§4) The GT1a cells and GT1b cells were seeded into 96-well plates (8,000 cells in 125 μL/well) respectively; each compound was diluted to desired concentration using 5-fold serial dilutions protocol, 10 doses in duplicate, and added to wells with POD™ 810 Plate Assembler., the final concentration of DMSO was 0.5%; the cells were incubated in a CO2 incubator for 72 hours; quantitative PCR. • Sample preparation: the supernatant was removed, 100 μL of FCW buffer solution was added to each well, washed carefully and discarded the solution; 50 μL of lysate FCP was added to each well, the cells was lysed as PCR template and PCR template was diluted with DEPC water as sample template. • Quantitative PCR: preparation of reaction mixture according to PCR system; the reaction mixture was dispensed into a 384-well PCR reaction plate (specially for quantitative); and a standard template which was diluted in proportion was distributed into the plate; and the sample template was distributed into the plate; then the 384-well plate was sealed with closure plate membrane; the […] PCR machine was operated by procedures; data analysis. 3. Data Processing: the EC50 Values of Compounds were Analyzed by GraphPad Prism Software.

[2] = system: HCV GT1b replicon cells; experiment: HCV Replicon assay, GT1b replicon cells (Luciferase / NEO qPCR); type: cell-based; conditions: Hepatitis C virus, 72 hours incubation, read-out: EC50 against HCV 1b genotype
Procedure: as §1, §2, §3, §4

Compound `COC(=O)N[C@H](C(=O)N1CCCC[C@H]1c1ncc(-c2ccc(-c3ccc(-c4cnc([C@@H]5CCCCN5C(=O)[C@@H](NC(=O)OC)C(C)C)[nH]4)c4c3C3(CCCC3)CC4)cc2)[nH]1)C(C)C` [Example 26] has an EC50 [1] of 13.7 nM and an EC50 [2] of 0.088 nM.
`CCC(C)[C@H](NC(=O)OC)C(=O)N1C2CC2C[C@H]1c1ncc(-c2ccc(-c3ccc(-c4ccc(-c5cnc([C@@H]6CC7CC7N6C(=O)[C@@H](NC(=O)OC)C(C)CC)[nH]5)cc4)c4c3CCC43CCCC3)cc2)[nH]1` (some centres unmarked) [Example 24] was tested, and the EC50 [1] was 2.69 nM and the EC50 [2] was 0.055 nM.
Work on `COC(=O)N[C@H](C(=O)N1CCC[C@H]1c1ncc(-c2ccc(-c3ccc(-c4ccc5[nH]c([C@@H]6CCCN6C(=O)[C@@H](NC(=O)OC)C(C)C)nc5c4)c4c3CCC43CCCC3)cc2)[nH]1)C(C)C` [Example 4] yielded an EC50 [1] of 0.085 nM and an EC50 [2] of 0.029 nM.
In the case of `COC(=O)N[C@H](C(=O)N1CCC[C@H]1c1ncc(-c2ccc(-c3ccc(-c4ccc5nc([C@@H]6CCCN6C(=O)[C@@H](NC(=O)OC)c6ccccc6)[nH]c5c4)c4c3C3(CCCC3)CC4)cc2)[nH]1)c1ccccc1` [Example 19], the EC50 [1] is reported as 0.376 nM and the EC50 [2] is reported as 0.011 nM.
`COC(=O)N[C@H](C(=O)N1CCC[C@H]1c1nc2cc(-c3ccc(-c4ccc5[nH]c([C@@H]6CCCN6C(=O)[C@@H](NC(=O)OC)C(C)C)nc5c4)c4c3CCC43CCCC3)ccc2[nH]1)C(C)C` [Example 1] showed an EC50 [1] of 0.102 nM and an EC50 [2] of 0.041 nM.
Work on `COC(=O)N[C@H](C(=O)N1CCC[C@H]1c1ncc(-c2ccc(-c3ccc(-c4cnc([C@@H]5CC6(CN5C(=O)[C@@H](NC(=O)OC)C(C)C)OCCO6)[nH]4)c4c3C3(CCCC3)CC4)cc2)[nH]1)C(C)C` [Example 31] yielded an EC50 [1] of 4.68 nM and an EC50 [2] of 0.048 nM.
`COC(=O)N[C@@H](C)C(=O)N1CCCC[C@H]1c1ncc(-c2ccc(-c3ccc(-c4cnc([C@@H]5CCCCN5C(=O)[C@H](C)NC(=O)OC)[nH]4)c4c3C3(CCCC3)CC4)cc2)[nH]1` [Example 27] showed an EC50 [1] of 12.7 nM and an EC50 [2] of 0.655 nM.
Compound `COC(=O)N[C@H](C(=O)N1CCC[C@H]1c1ncc(-c2ccc(-c3ccc(-c4ccc5[nH]c([C@@H]6CCCN6C(=O)[C@@H](NC(=O)OC)C(C)C)nc5c4)c4c3C3(CCCC3)CC4)cc2)[nH]1)C(C)C` [Example 3] has an EC50 [1] of 0.097 nM and an EC50 [2] of 0.032 nM.
Work on `COC(=O)N[C@H](C(=O)N1CCC[C@H]1c1nc(-c2ccc(-c3ccc(-c4ccc(-c5cnc([C@@H]6CCCN6C(=O)[C@@H](NC(=O)OC)C(C)C)[nH]5)cc4)c4c3CCC43CCCC3)cc2)c[nH]1)C(C)C` [Example 6] yielded an EC50 [1] of 1.37 nM and an EC50 [2] of 0.208 nM.
With `COC(=O)N[C@@H](C)C(=O)N1CCC[C@H]1c1ncc(-c2ccc(-c3ccc(-c4cnc([C@@H]5CCCN5C(=O)[C@H](C)NC(=O)OC)[nH]4)c4c3C3(CCCC3)CC4)cc2)[nH]1` [Example 12] the EC50 [1] was 0.856 nM and the EC50 [2] was 0.018 nM.
`COC(=O)N[C@H](C(=O)N1CCC[C@H]1C(=O)Nc1ccc(-c2ccc(-c3ccc(NC(=O)[C@@H]4CCCN4C(=O)[C@@H](NC(=O)OC)C(C)C)cc3)c3c2CCC32CCCC2)cc1)C(C)C` [Example 20] was tested, and the EC50 [1] was 5.9 nM and the EC50 [2] was 1.03 nM.
In the case of `COC(=O)N[C@H](C(=O)N1CCC[C@H]1C1=Nc2ccc(-c3cnc(-c4ccc(-c5cnc([C@@H]6CCCN6C(=O)[C@@H](NC(=O)OC)C(C)C)[nH]5)cc4)c4c3CCC43CCCC3)cc2S(=O)(=O)N1)C(C)C` [Example 39], the EC50 [1] is reported as 0.027 nM and the EC50 [2] is reported as 0.02 nM.
For `COC(=O)N[C@H](C(=O)N1C2CC2C[C@H]1c1ncc(-c2ccc(-c3ccc(-c4ccc5nc([C@@H]6CC7CC7N6C(=O)[C@@H](NC(=O)OC)C(C)C)[nH]c5c4)c4c3C3(CCCC3)CC4)cc2)[nH]1)C(C)C` (some centres unmarked) [Example 32], the EC50 [1] was 0.064 nM and the EC50 [2] was 0.077 nM.
`COC(=O)N[C@H](C(=O)N1C[C@@H](F)C[C@H]1c1ncc(-c2ccc(-c3ccc(-c4cnc([C@@H]5C[C@H](F)CN5C(=O)[C@@H](NC(=O)OC)C(C)C)[nH]4)c4c3C3(CCCC3)CC4)cc2)[nH]1)C(C)C` [Example 17] gave an EC50 [1] of 0.475 nM and an EC50 [2] of 0.072 nM.
With `COC(=O)N[C@H](C(=O)N1CC(F)(F)C[C@H]1c1nc(-c2ccc(-c3ccc(-c4cnc([C@@H]5CC(F)(F)CN5C(=O)[C@@H](NC(=O)OC)C(C)C)[nH]4)c4c3C3(CCOCC3)CC4)cc2)c[nH]1)C(C)C` [Example 42] the EC50 [1] was 6.89 nM and the EC50 [2] was 0.109 nM.
Work on `C=C([C@@H](NC(=O)OC)C(C)C)N1CC(C)(C)C[C@H]1c1ncc(-c2ccc(-c3ccc(-c4cnc([C@@H]5CC(C)(C)CN5C(=O)[C@@H](NC(=O)OC)C(C)C)[nH]4)cc3)c3c2CCC32CCCC2)[nH]1` [Example 18] yielded an EC50 [1] of 0.458 nM and an EC50 [2] of 0.203 nM.
With `COC(=O)N[C@H](C(=O)N1CCC[C@H]1c1ncc(C#Cc2ccc(C#Cc3cnc([C@@H]4CCCN4C(=O)[C@@H](NC(=O)OC)C(C)C)[nH]3)c3c2CCC32CCCC2)[nH]1)C(C)C` [Example 7] the EC50 [1] was 0.955 nM and the EC50 [2] was 0.106 nM.
For `COC(=O)N[C@H](C(=O)N1CCC[C@H]1c1ncc(-c2ccc(-c3ccc(-c4cnc([C@@H]5CCCN5C(=O)[C@@H](NC(=O)OC)C(C)C)[nH]4)c4c3CCC43CCCC3)cc2)[nH]1)C(C)C` [Example 5], the EC50 [1] was 2.49 nM and the EC50 [2] was 0.086 nM.
For `CC(C)[C@H](NC(=O)N1CCOCC1)C(=O)N1CCC[C@H]1c1ncc(-c2ccc(N3CCC(c4cnc([C@@H]5CCCN5C(=O)[C@@H](NC(=O)N5CCOCC5)C(C)C)[nH]4)CC3)c3c2CCC32CCCC2)[nH]1` [Example 8], the EC50 [1] was 5.44 nM and the EC50 [2] was 1.33 nM.
`COC(=O)N[C@H](C(=O)N1C2CCC(C2)[C@H]1c1ncc(-c2ccc(-c3ccc(-c4ccc5nc([C@@H]6C7CCC(C7)N6C(=O)[C@@H](NC(=O)OC)C(C)C)[nH]c5c4)c4c3C3(CCCC3)CC4)cc2)[nH]1)C(C)C` (some centres unmarked) [Example 33] gave an EC50 [1] of 0.09 nM and an EC50 [2] of 0.039 nM.
`COC(=O)N[C@H](C(=O)N1CCC[C@H]1c1ncc(-c2ccc(-c3ccc(-c4cnc([C@@H]5CCCN5C(=O)[C@@H](NC(=O)OC)C(C)C)[nH]4)c4c3C3(CCC4)CCN(C)C3)cc2)[nH]1)C(C)C` (some centres unmarked) [Example 50] gave an EC50 [1] of 0.875 nM and an EC50 [2] of 0.096 nM.
Compound `COC(=O)NC(C(=O)N1CCCC1c1ncc(-c2ccc(-c3ccc(-c4ccc5[nH]c(C6CCCN6C(=O)C(NC(=O)OC)C(C)C)nc5c4)c4c3C3(CCCC3)CC4)cc2)[nH]1)C(C)C` (centres unmarked) [Example 55] has an EC50 [1] of 0.073 nM and an EC50 [2] of 0.028 nM.
For `COC(=O)NC(C(=O)N1CCCC1c1nc(-c2ccc(-c3ccc(-c4c[nH]c(C5CCCN5C(=O)C(NC(=O)OC)C(C)C)n4)c4c3C3(CCCC3)CC4)cc2)c[nH]1)C(C)C` (centres unmarked) [Example 54], the EC50 [1] was 3.57 nM and the EC50 [2] was 0.044 nM.
`COC(=O)N[C@H](C(=O)N1CCC[C@H]1c1nc(-c2ccc(-c3ccc(-c4c[nH]c([C@@H]5CCCN5C(=O)[C@@H](NC(=O)OC)C(C)C)n4)c4c3C3(CCCC3)CC4)cc2)c[nH]1)C(C)C` [Example 2] was tested, and the EC50 [1] was 0.325 nM and the EC50 [2] was 0.009 nM.
`COC(=O)N[C@H](C(=O)N1CCC[C@H]1c1nc2ccc(-c3ccc(-c4ccc5nc([C@@H]6CCCN6C(=O)[C@@H](NC(=O)OC)C(C)C)[nH]c5c4)c4c3CCC43CCC3)cc2[nH]1)C(C)C` [Example 40] was tested, and the EC50 [1] was 0.043 nM and the EC50 [2] was 0.017 nM.

Source: US20150232509A1, “SPIRO RING COMPOUNDS AS HEPATITIS C VIRUS (HCV) INHIBITORS” (SUNSHINE LAKE PHARMA CO., LTD., priority 2012, published 2015)
